Measured values published in PMC6669608, “Evaluation of Oxasqualenoids from the Red Alga Laurencia viridis against Acanthamoeba” (Marine Drugs, 2019).

Assays:
[1] = tested on: A. castellanii Neff; test: Double-stain assay (Hoechst 33342/PI) for programmed cell death; type: cell-based, Acanthamoeba castellanii Neff; conditions: IC90, 24 h
Method: A double-stain apoptosis detection kit (Hoechst 33342/PI) (GenScript, Piscataway, NJ, USA) and an EVOS FL Cell Imaging System AMF4300 (Life Technologies, Carlsbad, CA, USA) were used. The experiment was carried out by following the manufacturer’s recommendations, and 10^5 cells/well were incubated in a 24-well plate for 24 h with the previously calculated IC90. The double-staining pattern allows the identification of three groups in a cellular population: live cells will show only a low level of fluorescence, cells undergoing programmed cell death (PCD) will show a higher level of blue fluorescence (as chromatin condenses), and dead cells will show low-blue and high-red fluorescence (as the propidium iodide stain enters the nucleus).

[2] = tested on: Acanthamoeba castellanii Neff trophozoites; test: In vitro activity against Acanthamoeba trophozoites (alamarBlue colorimetric assay); type: cell-based, Acanthamoeba castellanii Neff (ATCC 30010); conditions: 42.5 µM (25 µg/mL)
[3] = tested on: A. castellanii Neff trophozoites; test: Plasma membrane permeability (SYTOX Green); type: cell-based, Acanthamoeba castellanii Neff; conditions: IC90, 24 h
Method: The SYTOX Green assay was performed to detect alterations of the membrane permeability in treated cells. Briefly, 10^5 trophozoites were washed and incubated in saline solution with the SYTOX Green at a final concentration of 1 μM (Molecular Probes) for 15 min in the dark. Subsequently, DT solution was added (IC90).

[4] = tested on: A. castellanii Neff; test: Intracellular ROS production (CellROX Deep Red); type: cell-based, Acanthamoeba castellanii Neff; conditions: IC90, 24 h
Method: Generation of intracellular ROS was detected using the CellROX® Deep Red fluorescent probe (Invitrogen, Thermo Fisher Scientific Inc., Waltham, MA, USA). The cells were treated with IC90 of DT for 24 h and exposed to CellROX® Deep Red (5 μM, 30 min) at 26 °C in the dark.

[5] = tested on: Acanthamoeba castellanii Neff cysts; test: In vitro activity against Acanthamoeba castellanii Neff cysts (alamarBlue); type: cell-based; conditions: 168 h, mature cysts, 7 d incubation, read-out: IC50, cysticidal activity against A. castellanii Neff
Method: The cysticidal activity of DT was determined by the alamarBlue™ assay and confirmed visually by inverted microscopy. Cysts of A. castellanii Neff were prepared as previously described. Briefly, trophozoites were transferred from PYG medium based cultures (trophozoite medium) to Neff’s encystment medium (NEM; 0.1 M KCl, 8 mM MgSO4·7H2O, 0.4 mM CaCl2·2H2O, 1 mM NaHCO3, 20 mM ammediol (2-amino-2-methyl-1,3-propanediol; Sigma Aldrich, Madrid, Spain), pH 8.8 at 25 °C) and were cultured in this medium with gentle shaking for a week in order to obtain mature cysts. After that, mature cysts were harvested and washed twice using PYG medium.
A serial dilution of the tested molecules was made in PYG. The in vitro susceptibility assay was performed in sterile 96-well microtiter plates (Corning™). To these wells, containing 50 µL of drug dilutions, 5 × 10^4 mature cysts of Acanthamoeba/mL were added. After 7 d of incubation with the drugs, the plate was centrifuged at 3000 rpm for 10 min. The supernatant was removed and replaced with 100 µL of fresh PYG medium in each well. Finally, 10 μL of the Alamar Blue Assay Reagent (Biosource, Europe, Nivelles, Belgium) was placed into each well, and the plates were then incubated for 144 h at 28 °C. The emitted fluorescence was periodically examined with an Enspire microplate reader (PerkinElmer, Waltham, MA, USA) at 570/585 nm.

[6] = Cytotoxicity assay (alamarBlue); type: cell-based, murine; conditions: mouse; 24 h, 37 °C; read-out: CC50, toxicity against murine macrophage J774.A1
Method: (§1) The antiamoeboid activity of the compounds was evaluated against Acanthamoeba castellanii Neff (ATCC 30010) type strain from the American Type Culture Collection. This strain was axenically incubated in PYG medium (0.75% (w/v) proteose Peptone, 0.75% (w/v) Yeast extract, and 1.5% (w/v) Glucose) supplemented with 10 µg/mL gentamicin (Sigma-Aldrich, Madrid, Spain). As for the cytotoxicity assays, murine macrophages J774A.1 (ATCC TIB-67) were used, cultivated in DMEM medium (Dulbecco’s modified eagle medium, Gibco Life Technologies, California, USA) with 10% supplement of fetal bovine serum (FBS) and 10 µg/mL gentamicin at 37 °C in a 5% CO2 incubator.
The cytotoxicity of the tested compounds was determined in vitro with murine macrophages (J774A.1). For this assay, the DMEM culture medium was changed from RPMI without phenol red (Roswell Park Memorial Institute, Thermo Fisher Scientific Inc., Waltham, MA, USA) to L-Glutamine supplemented with 10% (v/v) inactivated FBS and with 10 µg/mL gentamicin. In this assay, the macrophages were counted and seeded into a 96-well microtiter plate, adding 50 µL to each well from a stock solution of 2 × 10^5 cells/mL. Cells were then left to adhere for 15 min to the plate bottom and were checked with the inverted microscope Leica DMIL. After that, 50 µL of a serial dilution of the compounds was added to the 96-well microtiter plate. Finally, alamarBlue™ was added into each well at an amount equal to 10% of the final volume and incubated at 37 °C in the presence of CO2 at 5% for 24 h. After this period of time, as in the in vitro anti-Acanthamoeba assay, the fluorescence was determined with an EnSpire Multimode Plate Reader (PerkinElmer, Inc, Waltham, MA, USA) at a wavelength of 570/585 nm. The cytotoxicity concentration to inhibit the growth of 50% of murine macrophages (CC50) was calculated through nonlinear regression analysis with 95% confidence limits using the software Sigma Plot 12.0 (Systat Software, Inc, San Jose, CA 95110 USA). Experiments were performed three times each, allowing for standard deviation.

[7] = tested on: Acanthamoeba castellanii Neff trophozoites; test: In vitro activity against Acanthamoeba trophozoites (alamarBlue colorimetric assay); type: cell-based, Acanthamoeba castellanii Neff (ATCC 30010); conditions: trophozoites, 96 h, 26 °C, read-out: IC50 against Acanthamoeba castellanii Neff
Method: as §1
The in vitro activities of the different compounds of Laurencia were evaluated using a previously developed colorimetric assay based on the alamarBlue™ Cell Viability Reagent assay (Life Technologies, Barcelona, Spain). Briefly, 50 µL of 5 × 10⁴ trophozoites/mL were seeded onto a 96-well microtiter plate. After 15 min, the adherence of the cells to the plate bottom was confirmed by the use of the inverted microscope Leica DMIL (Leica, Wetzlar, Germany). Furthermore, 50 µL of serial dilutions of each compound was added to the 96-well microtiter plate. Finally, alamarBlue™ was placed into each well at 10% of the final volume and incubated at 26 °C with slight agitation. After 96 h, the fluorescence was measured with EnSpire Multimode Plate Reader (Perkin Elmer, Madrid, Spain) at a wavelength of 570/585 nm. The inhibitory concentration to inhibit the growth of 50% of the parasites (IC50) was calculated through nonlinear regression analysis with 95% confidence limits using the software Sigma Plot 12.0 (Systat Software Inc., London, UK). The experiments were performed three times each, allowing for standard deviation.

Structure (SMILES): C=C(CC[C@H](O)[C@@]1(C)CC[C@H](C(C)(C)O)O1)[C@H]1CC[C@H]2O[C@@H]([C@]3(C)CC[C@@H](Br)C(C)(C)O3)CC[C@]2(C)O1 [Compound 1, dehydrothyrsiferol]
- chromatin condensation (Hoechst 33342/propidium iodide double stain) [1]: induce chromatin condensation
- inhibitory effect on the growth of A. castellanii trophozoites (microscopy) [2]: many of the treated cells were dead
- plasma membrane permeability (SYTOX Green) [3]: showed plasmatic membrane damage
- reactive oxygen species (ROS) levels [4]: increased levels of ROS
- IC50 [5]: 39.27 ± 0.14 µM
- CC50 [6]: 28.8 ± 3.1 µM
- IC50 [7]: 12.8 ± 1.38 µM
